Results from patent US12252701B2, “Chimeric antigen receptor T cell therapy” (KITE PHARMA, INC., priority 2020, dated 2025).
Like-named read-outs stand apart in the source and are kept apart here.

Tests used:
CD19 CAR T cells = experiment: CAR T cell cytokine production (Luminex) under CD19 K562, KIP-1 or CD2/3/28 stimulation; conditions: 72 h
Procedure: Cryopreserved healthy donor CLP CD19 CAR T cells were thawed and rested overnight in 100 U/ml of IL-2 at 1×10^6/ml. 2.5×10^5 CD19 CART cells were plated in 96-well RB plate wells in a total volume of 200 μl of R10 culture media. […] CD19 CART cell cytokine production was allowed to proceed through 72 hours in the presence of stimulator and JAKi or steroid. Following 72 h of culture, 100 μl of the cell supernatant of each well were harvested and stored at −80° C. for later Luminex/Bioplex-200 cytokine analysis. Briefly, stored supernatants were thawed and 50 μl of the sample was assayed for cytokines using a ThermoFisher Procarta Plex 19-plex human cytokine assay kit (ThermoFisher, Carlsbad, CA) according to kit manufacturer's instructions and detected using a BioRad Bioplex-200 instrument. The data points generated from the luminex cytokine assay were transferred to a GraphPad PRISM IC50 dose-response curve analysis to generate IC50 or potency values for the JAKi's and steroids tested.

[1] = Clinical pharmacokinetic data converted to in vitro concentrations; conditions: human, in vivo
Text: Given the different potencies of the JAK inhibitors and different pharmacokinetic properties for each drug, it was sought to test each drug at a relevant range of physiological concentrations based on clinical dosing and reported pharmacokinetic data from repeat dose studies. Reported Cmax values in patient sera were converted to in vitro concentrations and adjusted for reported plasma protein binding.

[2] = test system: phospho-STAT panel (pSTAT3/4/5), CD3+ T cells; experiment: phospho-STAT induction by IL-6, MesoScale Discovery phospho-STAT panel; format: cell-based, human; conditions: CD3+ T cells; for pSTAT3: MSD signal (No stim. 689, IL-6 alone 33641); for pSTAT4: MSD signal (No stim. 1964, IL-6 alone 15405); for pSTAT5: MSD signal (No stim. 9210, IL-6 alone 17743)
Procedure: CD19 CAR-T, PBMC or CD3+ T cells (AllCells) were thawed and rested 0/N at 37° C. in R10 media. Cells were seeded at 700,000 cells/well and were either untreated or treated with 100 ng/ml IL6+drug at indicated concentrations for 20 minutes at 37° C. The cells were then washed with cold PBS and followed by 60 μl of Tris lysis buffer (provided by MSD) for 30 minutes on ice. Lysates were collected by spin down for 10 minutes at >10,000 rpm. 25 μl/well per condition was used for MesoScale Discovery (MSD) assay using the phospho-STAT panel (pSTAT3/4/5) from MesoScale Discovery following the manufacturer's protocol. pSTAT panel plates were blocked with 150 μl of blocker A solution for 1 hr at RT with shaking. Plates were washed three times with 1× Tris wash buffer. 25 μl of lysate samples were added per well, incubated 2 hr at room temperature or at 4° C. overnight. Plates were washed 3 times with 1× tris wash buffer and then 25 μl of detection antibody solution were added to each well and incubated for 1 hr at room temperature with shaking. Plates were washed and 1× read buffer added to each well and plates were read on the MSD instrument.

[3] = test system: NALM6.GFP.LUC.CD19 target cells
in vitro = conditions: human, CAR-T cells
[4] = plasma protein binding, reported; cited from earlier work
CAR-T cells = experiment: CAR-T cell expansion assay (KIP-1 or CD3/CD28 stimulation); conditions: CD3/CD28
[5] = 100 ng/ml IL-6 + drug 10 uM, 20 min

In the case of `C[C@H]1C[C@@H]2[C@H]([C@@H](O)C[C@@]3(C)[C@H]2CC[C@]3(O)C(=O)CO)[C@@]2(C)C=CC(=O)C=C12` [Methlyprednisolone], the “Suppression of cytokine production, IL-6 (IC50)” value (CD19 CAR T cells; CD3/CD28 stimulation) is reported as “Suppress”, the “Suppression of cytokine production, MCP-1, % inh.” value (CD19 CAR T cells; CD3/CD28 stimulation) is reported as over 80% inh and the “Suppression of cytokine production, TNFa, % inh.” value (CD19 CAR T cells; CD3/CD28 stimulation) is reported as over 50% inh. The “Suppression of cytokine production, IL-6 (IC50)” value (CD19 CAR T cells; K562-CD19 stimulation) was “Suppress”, the “Suppression of cytokine production, MCP-1 (IC50)” value (CD19 CAR T cells; K562-CD19 stimulation) was “Suppress” and the “Suppression of cytokine production, MIG (IC50)” value (CD19 CAR T cells; K562-CD19 stimulation) was “Suppress”. For the same molecule, the “Suppression of cytokine production, TNFa (IC50)” value (CD19 CAR T cells; K562-CD19 stimulation) was “Suppress”, the “Suppression of cytokine production, IL-6, % inh.” value (CD19 CAR T cells; KIP-1 stimulation) was 66% inh and the “Suppression of cytokine production, IL-10, % inh.” value (CD19 CAR T cells; KIP-1 stimulation) was 50% inh. The “Suppression of cytokine production, MCP-1, % inh.” value (CD19 CAR T cells; KIP-1 stimulation) was 66% inh, the “Suppression of cytokine production, MIG, % inh.” value (CD19 CAR T cells; KIP-1 stimulation) was 50% inh and the “Suppression of cytokine production, TNFa, % inh.” value (CD19 CAR T cells; KIP-1 stimulation) was 75% inh. For the same molecule, the IC50 (CD19 CAR T cells; read-out: Suppression of cytokine production, GMCSF (IC50), CD3/CD28 stimulation) was over 10 µM, the IC50 (CD19 CAR T cells; read-out: Suppression of cytokine production, GMCSF (IC50), KIP-1 stimulation) was over 10 µM and the IC50 (CD19 CAR T cells; read-out: Suppression of cytokine production, GzB (IC50), CD3/CD28 stimulation) was over 10 µM. The IC50 (CD19 CAR T cells; read-out: Suppression of cytokine production, GzB (IC50), KIP-1 stimulation) was over 10 µM, the IC50 (CD19 CAR T cells; read-out: Suppression of cytokine production, IFNg (IC50), CD3/CD28 stimulation) was over 10 µM and the IC50 (CD19 CAR T cells; read-out: Suppression of cytokine production, IFNg (IC50), KIP-1 stimulation) was over 10 µM. For the same molecule, the IC50 (CD19 CAR T cells; read-out: Suppression of cytokine production, IL-2Ra (IC50), CD3/CD28 stimulation) was over 10 µM, the IC50 (CD19 CAR T cells; read-out: Suppression of cytokine production, IL-2Ra (IC50), K562-CD19 stimulation) was over 10 µM and the IC50 (CD19 CAR T cells; read-out: Suppression of cytokine production, IL-2Ra (IC50), KIP-1 stimulation) was over 10 µM. It also gave an IC50 (CD19 CAR T cells; read-out: Suppression of cytokine production, IL-8 (IC50), CD3/CD28 stimulation) of over 10 µM, an IC50 (CD19 CAR T cells; read-out: Suppression of cytokine production, IL-8 (IC50), K562-CD19 stimulation) of over 10 µM and an IC50 (CD19 CAR T cells; read-out: Suppression of cytokine production, IL-8 (IC50), KIP-1 stimulation) of over 10 µM. For the same molecule, the IC50 (CD19 CAR T cells; read-out: Suppression of cytokine production, IL-10 (IC50), CD3/CD28 stimulation) was over 10 µM, the IC50 (CD19 CAR T cells; read-out: Suppression of cytokine production, MIG (IC50), CD3/CD28 stimulation) was over 10 µM and the IC50 (CD19 CAR T cells; read-out: Suppression of cytokine production, MIP-1a (IC50), CD3/CD28 stimulation) was over 10 µM. For the same molecule, the IC50 (CD19 CAR T cells; read-out: Suppression of cytokine production, MIP-1a (IC50), KIP-1 stimulation) was over 10 µM, the IC50 (CD19 CAR T cells; read-out: Suppression of cytokine production, MIP-1b (IC50), CD3/CD28 stimulation) was over 10 µM and the IC50 (CD19 CAR T cells; read-out: Suppression of cytokine production, MIP-1b (IC50), KIP-1 stimulation) was over 10 µM. The IC50 (CD19 CAR T cells; read-out: Suppression of cytokine production, Perforin (IC50), CD3/CD28 stimulation) was over 10 µM and the IC50 (CD19 CAR T cells; read-out: Suppression of cytokine production, Perforin (IC50), KIP-1 stimulation) was over 10 µM.
For `C[C@H]1C[C@@H]2[C@H]([C@@H](O)C[C@@]3(C)[C@H]2CC[C@]3(O)C(=O)CO)[C@@]2(C)C=CC(=O)C=C12` [methylprednisolone], the “PPB adj. in Vitro concentration (free)” value [1] was 670 nM, the “PPB adj. in Vitro concentration (total)” value [1] was 2.56 µM and the “clinically relevant dose level (in vitro concentration)” value [1] was about 2.5 µM. For the same molecule, the Cmax ([1]; 100 mg) was 960 ng/mL, the “Cmax (ng/ml) (free)” value ([1]; 100 mg) was 251 ng/mL and the pSTAT3 [2, 5] was 25867. For the same molecule, the pSTAT4 [2, 5] was 11225, the pSTAT5 [2, 5] was 14781 and the pSTAT3 ([2]; IL-6 + drug 0.125 uM) was 30520. It also gave a pSTAT4 ([2]; IL-6 + drug 0.125 uM) of 14740, a pSTAT5 ([2]; IL-6 + drug 0.125 uM) of 18739 and a pSTAT3 ([2]; IL-6 + drug 0.5 uM) of 30901. It also gave a pSTAT4 ([2]; IL-6 + drug 0.5 uM) of 14903, a pSTAT5 ([2]; IL-6 + drug 0.5 uM) of 20208 and a pSTAT3 ([2]; IL-6 + drug 1 uM) of 28287. The pSTAT4 ([2]; IL-6 + drug 1 uM) was 14989, the pSTAT5 ([2]; IL-6 + drug 1 uM) was 18668 and the pSTAT3 ([2]; IL-6 + drug 5 uM) was 25433. The pSTAT4 ([2]; IL-6 + drug 5 uM) was 11282, the pSTAT5 ([2]; IL-6 + drug 5 uM) was 15142 and the “impact on CAR-T serial killing (percent cytotoxicity)” value [3] was “differential impacts”. It also gave a viability at 0 day, 1000 nM (in vitro) of 75%, a viability at 0 day, 5000 nM (in vitro) of 75% and a viability at 4 day, 1000 nM (in vitro) of 58.1%. The viability at 4 day, 5000 nM (in vitro) was 49.4%, the viability at 8 day, 1000 nM (in vitro) was 69.1% and the viability at 8 day, 5000 nM (in vitro) was 66%. For the same molecule, the viability at 12 day, 1000 nM (in vitro) was 76.3%, the viability at 12 day, 5000 nM (in vitro) was 71.9% and the Protein binding [4] was 78%. For the same molecule, the “% viability” value (CAR-T cells; dose 1000 nM, day 4) was 44.3%, the “% viability” value (CAR-T cells; dose 1000 nM, day 12) was 62.6% and the “% viability” value (CAR-T cells; dose 5000 nM, day 4) was 46.6%. The “% viability” value (CAR-T cells; dose 5000 nM, day 8) was 59.1% and the “% viability” value (CAR-T cells; dose 5000 nM, day 12) was 58.9%.
